# Bridge positions count the residues as written; N and C are the ends. Peptide text beside a SMILES is read from it.
# Assays:
# chymotrypsin = chymotrypsin (Bos taurus, UniProt P00766); assay: in vitro; conditions: for Remaining peak area (%)/chymotrypsin: 0 h; for remaining at 0.025 h, 60 μM / remaining at 0.05 h, 60 μM / remaining at 0.075 h, 60 μM / remaining at 0.1 h, 60 μM / remaining at 0.15 h, 60 μM / remaining at 0.25 h, 60 μM / remaining at 0.5 h, 60 μM / remaining at 1 h, 60 μM: isolated enzyme chymotrypsin, pH 7.8, Remaining peak area (%)/chymotrypsin
# Description: FIG. 18. […] At different time point, 25 μL aliquots was taken out, and 10% (v/v) TFA was added to terminate the reaction.
# (§1) Mix by centrifugation at 8000 rpm for 30 seconds.
# (§2) Arrange a certain volume of 0.05 μg/μL chymotrypsin solution in another sterile EP. Incubate the EP tubes containing peptides and enzymes at 37° C. for 5 min, and add 3 μL of […] solution to each EP tube containing peptides and mix well. Start timing and extract 25 μL of reaction solution at 1.5, 3.0, 4.5, 6.0 and 9.0 min later, respectively. Add 3.75 μL of 10% TFA to terminate the reaction and mix well by centrifugation at 8000 rpm for 30 seconds.
# (§3) Arrange a certain volume of 0.05 μg/μL chymotrypsin solution in another sterile EP. Incubate the EP tubes containing peptides and enzymes at 37° C. for 5 min, and then add 4.5 μL of chymotrypsin solution to each EP tube containing peptides and mix well. Start timing and extract 25 μL of reaction solution at 1.5, 3.0, 4.5, 6.0, 9.0, 15.0, 30.0, and 60.0 min later, respectively. Add 3.75 μL of 10% TFA to terminate the reaction and mix well by centrifugation at 8000 rpm for 30 seconds.
# (§4) Referring to the experimental method in Example 5, in vitro stability of salmon Calcitonin analogs with oral administration activity to the enzymatic hydrolysis by trypsin, chymotrypsin and elastase were performed.
# (§5) Referring to the experimental method in Example 5, in vitro stability of IL-17A inhibitory peptides towards the enzymatic hydrolysis by trypsin, chymotrypsin and elastase were performed.
# trypsin = molecular target: T1, trypsin (Bos taurus, UniProt P00760); assay: in vitro
# T1 sequence (P00760 24-246): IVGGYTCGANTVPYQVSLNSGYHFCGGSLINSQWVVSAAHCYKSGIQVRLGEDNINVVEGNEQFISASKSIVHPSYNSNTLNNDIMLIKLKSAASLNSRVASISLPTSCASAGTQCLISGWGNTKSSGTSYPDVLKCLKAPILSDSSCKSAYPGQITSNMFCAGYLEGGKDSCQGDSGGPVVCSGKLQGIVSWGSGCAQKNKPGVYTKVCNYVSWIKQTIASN
# Description: FIG. 17. […] At different time point, 25 μL aliquots was taken out, and 10% (v/v) TFA was added to terminate the reaction.
# as §1
# as §2, with “0.05 μg/μL trypsin solution in” for “0.05 μg/μL chymotrypsin solution in”, “min, and separately add 6” for “min, and add 3”, “separately add 6 μL of” for “and add 3 μL of”
# as §3, with “μg/μL trypsin” for “μg/μL chymotrypsin”, “and” for “and then”, “add 9” for “add 4.5”, “of trypsin” for “of chymotrypsin”
# as §4, §5
# [1] = molecular target: porcine pancreatic elastase (Sus scrofa, UniProt P00772); assay: Elastase inhibitory activity of peptides (AAApNA hydrolysis; IC50, Ki, residual activity); type: biochemical; conditions: for IC50: elastase 0.5 μM, AAApNA 1 mM
# Description: The inhibition constants of various synthetic active peptide inhibitors (molecular scaffolds) against seine proteases were measured. The substrates N-succinyl-Ala-Ala-Pro-Phe-p-nitroaniline (AAPFpNA), Nα—Benzoyl-L-arginine-4-nitroaniline hydrochloride (BApNA) and N-succinyl-[…] (AAApNA) are used in competitive binding reaction to determine the inhibitory activities against α-chymotrypsin, bovine trypsin, and porcine pancreatic elastase, respectively. Experiments for α-chymotrypsin and bovine trypsin inhibition were measured in 20 mM CaCl2, 50 mM Tris-HCl buffer (pH 7.8), and that for porcine elastase inhibition was measured in 50 mM Tris-HCl buffer (pH 8.0). The concentration of the peptide was measured using optical density (OD) at 280 nm. The Michaelis constant (Km) of the enzyme hydrolysis substrate is calculated from the initial rate of substrate hydrolysis at 405 nm. The absorbance value of the substrate was measured at 405 nm after complete hydrolysis. All data were processed using nonlinear regression.
# • (1) Added a total 198 μL of reaction buffer (20 mM CaCl2, 50 mM Tris-HCl (pH 8.0)) into the 96 well plate, followed by preheating at 37° C. for 15 min. Then added 2 μL of different concentrations of substrates (pNA, dissolved in DMSO), and mixed by centrifugation at 500 rpm for 1 min. Finally, the plate was incubated at 37° C. for 30 min, and the absorbance value at 405 nm was measured. In the 200 μL of reaction system, the final concentrations of pNA were 0, 0.025, 0.05, 0.075, 0.1, 0.125, 0.15, 0.175, and 0.2 mM, respectively. Make three repetitions for each concentration and plot the OD405 m value with pNA concentration to obtain the standard curve. • (2) Added a total 190 μL of reaction buffer (20 mM CaCl2, 50 mM Tris-HCl (pH 8.0)) and 8 μL of 4.375 μM elastase into the 96 well plate, followed by preheating at 37° C. for 5 min. Then added 2 μL of different concentrations of substrates (AAApNA, dissolved in DMSO), and mixed by centrifugation at 500 rpm for 1 min. Finally, the plate was incubated at 37° C. for 30 min, and the absorbance value at 405 nm was measured. In the 200 μL of reaction system, the final concentrations of AAApNA were 0, 0.125, 0.166, 0.2, 0.25, 0.33, 0.6, 0.75, and 1.25 mM, respectively. Make three repetitions for each concentration and plot the OD405 nm value with time to obtain the corresponding curve. Divide the slope of the curve by the slope of the standard curve and the enzyme concentration to obtain the initial velocity V0 (mM/(min*mM protein). Plot the initial velocity V0 with the concentration of substrate AAApNA using Prism software, and the Michaelis constant Km value of elastase hydrolyzing AAApNA was obtained.
# • (1) Added a total 190 μL of different concentrations of peptides (ECs) against elastase and reaction buffer (20 mM CaCl2, 50 mM Tris-HCl buffer (pH 8.0)) into the pre-cold 96 well plate, followed by preheating at 37° C. for 5 min and centrifugated at 500 rpm for 1 min and allowed to stand for 4 minutes. Then added 8 μL of 12.5 μM elastase and incubated at 37° C. for 10 min and centrifugated at 500 rpm for 1 min and allowed to stand for 9 minutes. Finally, added 2 μL of 100 mM AAApNA, and mixed by centrifugation at 500 rpm for 1 min. The plate was incubated at 37° C. for 60 min, and the absorbance value at 405 nm was measured. Three repetitions were made, and only reaction buffer and substrate were added in the blank control as the minimum absorption value (Min OD405 nm); Only reaction buffer, enzyme and substrate were added in the negative control as the maximum absorption value (Max OD405 nm). • (2) In the 200 μL of reaction system, the final concentrations of elastase and AAApNA were 0.5 μM and 1 mM, respectively. • (3) Data statistics
# Residual activity of enzyme (%)=(1−(Max OD405 nm−Sample OD405 nm)/(Max OD405 nm−Min OD405 nm))*100 […]
# [2] = isolated enzyme trypsin, pH 7.8
# Chain of porcine pancreatic elastase (P00772 27-266): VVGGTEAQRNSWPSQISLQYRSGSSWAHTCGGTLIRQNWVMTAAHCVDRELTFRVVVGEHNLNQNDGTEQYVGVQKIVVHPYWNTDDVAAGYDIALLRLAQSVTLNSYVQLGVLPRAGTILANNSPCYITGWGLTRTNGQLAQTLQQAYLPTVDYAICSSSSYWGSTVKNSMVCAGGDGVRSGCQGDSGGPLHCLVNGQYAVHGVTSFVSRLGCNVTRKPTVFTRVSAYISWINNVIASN
Compound,IC50 [1] [µM],Remaining peak area (%)/chymotrypsin (chymotrypsin) [%],"remaining at 0.025 h, 60 μM (chymotrypsin) [%]","remaining at 0.05 h, 60 μM (chymotrypsin) [%]","remaining at 0.075 h, 60 μM (chymotrypsin) [%]","remaining at 0.1 h, 60 μM (chymotrypsin) [%]","remaining at 0.15 h, 60 μM (chymotrypsin) [%]","remaining at 0.25 h, 60 μM (chymotrypsin) [%]","remaining at 0.5 h, 60 μM (chymotrypsin) [%]","remaining at 1 h, 60 μM (chymotrypsin) [%]",also measured
CC[C@H](C)[C@H](N)C(=O)N[C@@H](Cc1c[nH]cn1)C(=O)N[C@H](C(=O)N[C@H](C(=O)N[C@H](C(=O)N1CCC[C@H]1C(=O)N[C@@H](C)C(=O)N[C@@H](CC(=O)O)C(=O)N[C@@H](CC(C)C)C(=O)N[C@@H](Cc1c[nH]c2ccccc12)C(=O)N[C@@H](CC(=O)O)C(=O)N[C@@H](Cc1c[nH]c2ccccc12)C(=O)N[C@H](C(=O)N[C@@H](CC(N)=O)C(=O)NCC(=O)N[C@H]1CSSC[C@@H](C(=O)N[C@@H](Cc2ccccc2)C(=O)O)NC(=O)[C@H]([C@@H](C)CC)NC(=O)[C@@H]2CCCN2C(=O)[C@@H]2CCCN2C(=O)[C@H]([C@@H](C)CC)NC(=O)[C@H](CO)NC(=O)[C@H](CCCCN)NC(=O)[C@H]([C@@H](C)O)NC(=O)[C@H](C)NC(=O)[C@H](CCCNC(=N)N)NC(=O)CNC1=O)[C@@H](C)CC)[C@@H](C)CC)[C@@H](C)O)C(C)C [17A-BT] (H-IHVTIPADLWDWINGCGRATKSIPPICF-OH; disulfide 16-27),–,100.0 ± 0.0,69.6 ± 3,68.9 ± 4.8,48.1 ± 4.3,45.2 ± 1.3,42.9 ± 3,37 ± 1.7,26.4 ± 0.4,9.6 ± 0.8,stability towards trypsin hydrolysis (in words) (trypsin): tolerated to the degradation of corresponding serine proteases
CC[C@H](C)[C@@H]1NC(=O)[C@H](CO)NC(=O)[C@H](Cc2ccc(O)cc2)NC(=O)[C@H]([C@@H](C)O)NC(=O)[C@@H](NC(=O)[C@H](Cc2ccccc2)NC(=O)CNC(=O)[C@@H]2CCCN2C(=O)[C@@H](NC(=O)CNC(=O)[C@H](CO)NC(=O)CNC(=O)[C@@H](NC(=O)[C@H](CC(N)=O)NC(=O)[C@@H](NC(=O)[C@H](CCCNC(=N)N)NC(=O)[C@@H]2CCCN2C(=O)[C@H](Cc2ccc(O)cc2)NC(=O)[C@@H](NC(=O)[C@H](CCC(N)=O)NC(=O)[C@H](CC(C)C)NC(=O)[C@H](CCCCN)NC(=O)[C@H](Cc2c[nH]cn2)NC(=O)[C@H](C)NC(=O)[C@H](CCC(=O)O)NC(=O)[C@H](CCC(N)=O)NC(=O)[C@H](CO)NC(=O)[C@H](CC(C)C)NC(=O)[C@H](CCCCN)NC(=O)CNC(=O)[C@H](CC(C)C)NC(=O)CNC(=O)[C@@H]2CSSC[C@H](N)C(=O)N[C@@H](CO)C(=O)N[C@@H](CC(N)=O)C(=O)N[C@@H](CC(C)C)C(=O)N[C@@H](CO)C(=O)N[C@@H]([C@@H](C)O)C(=O)N2)[C@@H](C)O)[C@@H](C)O)[C@@H](C)O)[C@@H](C)O)CSSC[C@@H](C(=O)N[C@@H](Cc2ccc(O)cc2)C(=O)NCC(=O)O)NC(=O)[C@H](CCC(N)=O)NC(=O)[C@@H]2CCCN2C(=O)[C@@H]2CCCN2C1=O [Cal-CH],–,100.0 ± 0.0,89.3 ± 2.9,90.9 ± 4.7,83.8 ± 0.4,82.2 ± 4.1,52.4,51.8 ± 0.4,51.2 ± 1.8,24.6 ± 0.5,"stability towards chymotrypsin hydrolysis (in words) (chymotrypsin): resistant to the corresponding protease degradation; Remaining peak area (%)/Trypsin (trypsin; 0 h): 100.0 ± 0.0%; remaining at 0.025 h, 60 μM (trypsin; [2]): 13.4 ± 2.3%; remaining at 0.05 h, 60 μM (trypsin; [2]): 0%; remaining at 0.075 h, 60 μM (trypsin; [2]): 0%; remaining at 0.1 h, 60 μM (trypsin; [2]): 0%; remaining at 0.15 h, 60 μM (trypsin; [2]): 0%"
CC[C@H](C)[C@@H]1NC(=O)[C@H](CO)NC(=O)[C@H](C)NC(=O)[C@H]([C@@H](C)O)NC(=O)[C@@H](NC(=O)[C@@H](N)CC(C)C)CSSC[C@@H](C(=O)N[C@@H](Cc2ccc(O)cc2)C(=O)O)NC(=O)[C@H](CCC(N)=O)NC(=O)[C@@H]2CCCN2C(=O)[C@@H]2CCCN2C1=O [EC1] (H-LCTASIPPQCY-OH; disulfide 2-10; C-terminus assumed),–,–,–,–,–,–,–,–,–,–,inhibitory activity against elastase (in words) [1]: better inhibitory activity against Elastase; Ki ([1]; read-out: Ki): 0.33 µM

# Now from value to molecule, other results behind:
IC50 [1] [µM],Compound,Remaining peak area (%)/chymotrypsin (chymotrypsin) [%],"remaining at 0.025 h, 60 μM (chymotrypsin) [%]","remaining at 0.05 h, 60 μM (chymotrypsin) [%]","remaining at 0.075 h, 60 μM (chymotrypsin) [%]","remaining at 0.1 h, 60 μM (chymotrypsin) [%]","remaining at 0.15 h, 60 μM (chymotrypsin) [%]","remaining at 0.25 h, 60 μM (chymotrypsin) [%]","remaining at 0.5 h, 60 μM (chymotrypsin) [%]","remaining at 1 h, 60 μM (chymotrypsin) [%]",also measured
> 50,CC[C@H](C)[C@@H]1NC(=O)[C@H](CO)NC(=O)[C@H](C)NC(=O)[C@H]([C@@H](C)O)NC(=O)[C@H](C)NC(=O)[C@H](CC(C)C)NC(=O)CNC(=O)[C@@H](N)CSSC[C@@H](C(=O)N[C@@H](Cc2ccc(O)cc2)C(=O)O)NC(=O)[C@H](CCC(N)=O)NC(=O)[C@@H]2CCCN2C(=O)[C@@H]2CCCN2C1=O [EC3] (H-CGLATASIPPQCY-OH; disulfide 1-12; N-terminus and C-terminus assumed),–,–,–,–,–,–,–,–,–,–
> 50,CC[C@H](C)[C@@H]1NC(=O)[C@H](CO)NC(=O)[C@H](C)NC(=O)[C@H]([C@@H](C)O)NC(=O)CNC(=O)[C@H](CC(C)C)NC(=O)CNC(=O)[C@@H](N)CSSC[C@@H](C(=O)N[C@@H](Cc2ccc(O)cc2)C(=O)O)NC(=O)[C@H](CCC(N)=O)NC(=O)[C@@H]2CCCN2C(=O)[C@@H]2CCCN2C1=O [EC4] (H-CGLGTASIPPQCY-OH; disulfide 1-12),–,–,–,–,–,–,–,–,–,–
> 50,CC[C@H](C)[C@@H]1NC(=O)[C@H](CO)NC(=O)[C@H](C)NC(=O)[C@H]([C@@H](C)O)NC(=O)[C@H](C)NC(=O)[C@H](CC(C)C)NC(=O)[C@@H](N)CSSC[C@@H](C(=O)N[C@@H](Cc2ccc(O)cc2)C(=O)O)NC(=O)[C@H](CCC(N)=O)NC(=O)[C@@H]2CCCN2C(=O)[C@@H]2CCCN2C1=O [EC5] (H-CLATASIPPQCY-OH; disulfide 1-11; N-terminus and C-terminus assumed),–,–,–,–,–,–,–,–,–,–

# From US20230416329A1, “A PEPTIDE WITH DISULFIDE BONDS AND INHIBITORY ACTIVITY AGAINST SERINE PROTEASES, DERIVED HYBRID PEPTIDES THEREOF, AND USES THEREOF” (INSTITUTE OF MATERIA MEDICA , CHINESE ACADEMY OF MEDICAL …, priority 2020, published 2023)
